Data on 9 molecules can be found in ChEMBL document CHEMBL1201862, “PubChem BioAssay data set” (2004).

SMILES strings stand for the structures.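 Each compound was tested at five concentrations against cells in 96-well plates for 48 hours. Abbreviation: GI50, concentration required for 50% inhibition of growth.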 Calls of active or inactive are those of the source. Rule as the data show it: active = GI50 up to about 1.1 µM and inactive = higher.

Holding throughout (test): inhibition of tumour cell growth, NCI panel, 48 h
The test system of experiment [1] is 786-0.
For experiment [2], the system named is SK-MEL-5.
Experiment [3] concerns RXF 393.
Experiment [4] concerns SNB-75.
Experiment [5] has as its system HCT-116.
The subject of experiment [6] is HT-29.
Experiment [7] deals with CCRF-CEM.
The subject of experiment [8] is M14.
Experiment [9] has as its system SF-539.
In experiment [10] the test system is OVCAR-8.
In experiment [11] the test system is IGROV-1.
Experiment [12] concerns SF-295.
Experiment [13] relates to COLO 205.
The subject of experiment [14] is UACC-62.
Experiment [15] has as its system SW-620.
Experiment [16] has as its system NCI-H522.
For experiment [17], the system named is NCI-H226.
Experiment [18] relates to A498.
The subject of experiment [19] is HCT-15.
In experiment [20] the test system is OVCAR-5.

`Cc1c(OC(C)C(=O)O)ccc2c(-c3ccccc3)cc(=O)oc12` (stereo not given): the GI50 in experiment [1], in experiment [2], in experiment [3], in experiment [4], in [5] and in experiment [6] was > 100 µM (inactive) each time. The GI50 in experiment [7], in experiment [8], in [9], in experiment [10], in experiment [11] and in experiment [12] was > 100 µM (inactive) in each case. Also, the GI50 in [13], in [14], in experiment [15], in experiment [16], in experiment [17] and in [18] was > 100 µM (inactive) throughout.
Take `CC(C)C(=O)Cc1ccc2ccccc2n1`: the GI50 is > 100 µM (inactive) in experiment [1]; > 100 µM (inactive) in experiment [2]; greater than 100 µM in [19]; > 100 µM (inactive) in experiment [3]; > 100 µM (inactive) in [4]; 95.5 µM (inactive) in [5]. In addition, the GI50 is > 100 µM (inactive) in experiment [6]; > 100 µM (inactive) in [7]; > 100 µM (inactive) in experiment [8]; > 100 µM (inactive) in [10]; 73.5 µM (inactive) in [11]; > 100 µM (inactive) in [12]. For the same molecule, the GI50 is > 100 µM (inactive) in experiment [13]; > 100 µM (inactive) in experiment [14]; > 100 µM (inactive) in experiment [15]; 50.5 µM (inactive) in [16]; > 100 µM (inactive) in experiment [17]; > 100 µM (inactive) in experiment [20]. Besides, the GI50 in [18] was > 100 µM (inactive).
Take `COc1ccc(-c2cs/c(=N\c3ccccc3)n2CCCN(C)C)cc1`: the GI50 is 24.8 µM in [19]; 12.2 µM (inactive) in experiment [3]; 4.44 µM (inactive) in experiment [4]; 21.1 µM (inactive) in [7]; 10.7 µM (inactive) in [8]; 13.6 µM (inactive) in experiment [9]. Further, the GI50 in experiment [10] is 21.8 µM (inactive); in [12] it was 13 µM (inactive); in experiment [14], 15.1 µM (inactive); in [15] it was > 10 µM (inactive); in [17], 18.2 µM (inactive); in experiment [20] it was 14.8 µM (inactive). The GI50 in experiment [18] was 22 µM (inactive).
On to `Cc1cc(C)nc(NS(=O)(=O)c2ccc(NC(=O)c3cccc4c(Nc5ccc(S(=O)(=O)Nc6cc(C)on6)cc5)c5ccccc5nc34)cc2)n1`, for which the GI50 in experiment [3] was 20.1 µM (inactive); in experiment [4] it was 23.3 µM (inactive); in experiment [5], 25.9 µM (inactive); in experiment [6], 22.2 µM (inactive); in experiment [7], 28.8 µM (inactive); in experiment [8] it was 22.7 µM (inactive). The GI50 in [9] is 17.1 µM (inactive); in experiment [14], 20.3 µM (inactive); in experiment [16], 16.3 µM (inactive); in experiment [20] it was 16.7 µM (inactive); in [18], 23.8 µM (inactive).
As for `COc1ccc2c(c1)OC(c1ccccc1O)CC2=O` (stereo not given), the GI50 is 40.5 µM (inactive) in [1]; 40 µM (inactive) in [2]; 27.2 µM in experiment [19]; 30.9 µM (inactive) in experiment [4]; 29.5 µM (inactive) in experiment [5]; 74.6 µM (inactive) in experiment [6]. Also, the GI50 is 30.5 µM (inactive) in experiment [7]; 39.9 µM (inactive) in [8]; 45.9 µM (inactive) in experiment [9]; 47.6 µM (inactive) in experiment [10]; 45.7 µM (inactive) in experiment [12]; 40.6 µM (inactive) in experiment [15]. For the same molecule, the GI50 in experiment [16] is 27.9 µM (inactive); in experiment [20], > 100 µM (inactive); in [18], 53.1 µM (inactive).
As to `C#CCN(Cc1ccc2nc(-c3ccccc3)c(Cl)nc2c1)c1ccc(F)cc1`, the GI50 is > 100 µM (inactive) in [1]; 23.1 µM (inactive) in experiment [2]; 87.1 µM in experiment [19]; > 100 µM (inactive) in [4]; > 100 µM (inactive) in experiment [5]; 61.9 µM (inactive) in [6]. Further, the GI50 in experiment [7] was 17.5 µM (inactive); in experiment [8] it was > 100 µM (inactive); in experiment [9] it was > 100 µM (inactive); in experiment [10], > 100 µM (inactive); in experiment [11], > 100 µM (inactive); in [12], > 100 µM (inactive). In addition, the GI50 in experiment [13] is 51.3 µM (inactive); in [14], > 100 µM (inactive); in experiment [15], > 100 µM (inactive); in [16], 40.6 µM (inactive); in [20], > 100 µM (inactive); in experiment [18], > 100 µM (inactive).
For `Cn1c(=O)c(Cl)c(N=[N+]=[N-])c2ccccc21`, the GI50 in experiment [2] was 65.5 µM (inactive); in experiment [19] it was greater than 100 µM; in experiment [3], 69.2 µM (inactive); in experiment [4] it was 25.8 µM (inactive); in [5], 93.8 µM (inactive); in [6] it was > 100 µM (inactive). In addition, the GI50 is 55.7 µM (inactive) in [7]; > 100 µM (inactive) in [9]; > 100 µM (inactive) in experiment [10]; > 100 µM (inactive) in [11]; > 100 µM (inactive) in experiment [12]; > 100 µM (inactive) in experiment [13]. Besides, the GI50 in [14] was 68.1 µM (inactive); in [15], > 100 µM (inactive); in [16] it was 74.3 µM (inactive); in experiment [17], 39.8 µM (inactive); in experiment [20], > 100 µM (inactive); in experiment [18], > 100 µM (inactive).
In the case of `C=C(C)C1Cc2c(cc(O)c3c(=O)c4ccccc4n(C)c23)O1` (stereo not given), the GI50 is 27.7 µM (inactive) in experiment [2]; greater than 100 µM in experiment [19]; 15.6 µM (inactive) in experiment [3]; 14.9 µM (inactive) in experiment [4]; 69.8 µM (inactive) in experiment [5]; > 100 µM (inactive) in experiment [6]. Further, the GI50 in [7] was 15.4 µM (inactive); in experiment [8], 28.7 µM (inactive); in experiment [12] it was 7.45 µM (inactive); in experiment [13] it was > 100 µM (inactive); in experiment [15], 36 µM (inactive); in experiment [16], 19.9 µM (inactive). Moreover, the GI50 was 37.1 µM (inactive) in [17], > 100 µM (inactive) in experiment [20] and 24.3 µM (inactive) in [18].
Regarding `COc1cc(C2c3cc4c(cc3[C@@H](Nc3cccc(CO)c3)C3COC(=O)[C@H]23)OCO4)cc(OC)c1O` (stereo not given in full), the GI50 in experiment [2] was 0.56 µM (active); in experiment [19] it was 0.875 µM; in [3] it was 1.27 µM (inactive); in experiment [4], 0.94 µM (active); in experiment [5], 0.624 µM (active); in experiment [6], 0.984 µM (active). Further, the GI50 in experiment [7] was 0.078 µM (active); in experiment [9] it was 0.352 µM (active); in experiment [10], 1.33 µM (inactive); in [11] it was 1.62 µM (inactive); in experiment [12], 0.218 µM (active); in [13] it was 1.54 µM (inactive). Moreover, the GI50 in experiment [14] is 0.307 µM (active); in experiment [15], 1.41 µM (inactive); in [16], 1 µM (active); in [17], 0.308 µM (active); in experiment [20] it was 2.04 µM (inactive); in experiment [18], 0.293 µM (active).
